# System: MCH receptors
# Test: MCH receptor activity class (method not given)
# Conditions: activity class per percent of control at 10^-7 M or IC50
row,SMILES,class
1,CN(C)c1nc(N[C@H]2CC[C@@H](NC(=O)[C@H](CCCCNC(=O)c3ccccc3)NC(=O)c3ccccc3)CC2)nc2c1CCCC2 (relative stereo) [compound 980],2 (Class 2: The value of percent of control at 10^−7 M was from 40% to 60% or the value of IC′50 was from 50 nM to 200 nM.)
2,CC(C(=O)N[C@H]1CC[C@@H](Nc2nc3c(c(N(C)C)n2)CCCC3)CC1)c1ccc(-c2ccccc2)c(F)c1 (relative stereo) [compound 984],2 (Class 2: The value of percent of control at 10^−7 M was from 40% to 60% or the value of IC′50 was from 50 nM to 200 nM.)
3,COc1ccc2c(c1)C(CC(=O)N[C@H]1CC[C@@H](Nc3nc4c(c(N(C)C)n3)CCCC4)CC1)CC2=O (relative stereo) [compound 988],3 (Class 3 The value of percent of control at 10^−7 M was more than 60% or the value of IC50 was more than 200 nM.)

# Same assay, conditions: class by percent of control at 10^-7 M or IC50
row,SMILES,class
1,"CC1=C(CC(=O)N[C@H]2CC[C@@H](Nc3nccc(N(C)C)n3)CC2)c2cc(F)ccc2/C1=C/c1ccc([S+](C)[O-])cc1 (relative stereo) [compound 883, N-(cis-4-{[4-(dimethylamino)pyrimidin-2-yl]amino}cyclohexyl)-2-{(1E)-5-fluoro-2-methyl-1-[4-(methylsulfinyl)benzylidene]-1H-inden-3-yl}acetamide]",2 (Class 2: The value of percent of control at 10^−7 M was from 40% to 60% or the value of IC′50 was from 50 nM to 200 nM.)
2,"CC(C(=O)N[C@H]1CC[C@@H](Nc2nccc(N(C)C)n2)CC1)c1ccc(C(=O)c2cccs2)cc1 (relative stereo) [compound 884, N-(cis-4-{[4-(dimethylamino)pyrimidin-2-yl]amino}cyclohexyl)-2-[4-(2-thienylcarbonyl)phenyl]propanamide]",2 (Class 2: The value of percent of control at 10^−7 M was from 40% to 60% or the value of IC′50 was from 50 nM to 200 nM.)
3,COC(C(=O)N[C@H]1CC[C@@H](Nc2nccc(N(C)C)n2)CC1)c1ccccc1 (relative stereo) [compound 916],3 (Class 3 The value of percent of control at 10^−7 M was more than 60% or the value of IC50 was more than 200 nM.)
4,CN(C)c1ccnc(N[C@H]2CC[C@@H](NC(=O)C3CCc4ccccc4C3)CC2)n1 (relative stereo) [compound 917],3 (Class 3 The value of percent of control at 10^−7 M was more than 60% or the value of IC50 was more than 200 nM.)
5,"CN(C)c1ccnc(N[C@H]2CC[C@@H](CNC(=O)C(Cc3ccccc3)c3ccccc3)CC2)n1 (relative stereo) [compound 930, N-[(cis-4-{[4-(dimethylamino)pyrimidin-2-yl]amino}cyclohexyl)methyl]-2,3-diphenylpropanamide]",2 (Class 2: The value of percent of control at 10^−7 M was from 40% to 60% or the value of IC′50 was from 50 nM to 200 nM.)
6,"CN(C)c1ccnc(N[C@H]2CC[C@@H](CNC(=O)C3CC(=O)c4ccccc43)CC2)n1 (relative stereo) [compound 935, N-[(cis-4-{[4-(dimethylamino)pyrimidin-2-yl]amino}cyclohexyl)methyl]-3-oxoindane-1-carboxamide]",1 (Class 1: The value of percent of control at 10^−7 M was less than 40% or the value of IC50 was less than 50 nM.)
7,CCOc1ccc(C(=O)CC(C(=O)NC[C@H]2CC[C@@H](Nc3nccc(N(C)C)n3)CC2)C2C(=O)N(c3ccccc3)N=C2C)cc1 (relative stereo) [compound 944],3 (Class 3 The value of percent of control at 10^−7 M was more than 60% or the value of IC50 was more than 200 nM.)
8,CN(C)c1nc(N[C@H]2CC[C@@H](NC(=O)C(Cc3ccccc3)c3ccccc3)CC2)nc2c1CCCC2 (relative stereo) [compound 954],2 (Class 2: The value of percent of control at 10^−7 M was from 40% to 60% or the value of IC′50 was from 50 nM to 200 nM.)
9,CN(C)c1nc(N[C@H]2CC[C@@H](NC(=O)C3CC(=O)c4ccccc43)CC2)nc2c1CCCC2 (relative stereo) [compound 960],2 (Class 2: The value of percent of control at 10^−7 M was from 40% to 60% or the value of IC′50 was from 50 nM to 200 nM.)

# Reference: patent US20050197350A1, “Novel quinoline, tetrahydroquinazoline, and pyrimidine derivatives and methods of treatment related to the use thereof” (TAISHO PHARMACEUTICAL CO., LTD., priority 2003, published 2005)
